{
  "source": "patent US20250172566A1",
  "about": "“SACCHARIDE SENSING SYSTEMS” (CARBOMETRICS LIMITED, priority 2022, published 2025)",
  "test": "Fluorescent solution phase glucose responsive assay (pH 7.4, 298 K)",
  "conditions": "20 mM D-glucose; GBM22 5 μM; FIM 1 μM; medium A; Ex 470 nm, Emmax 590 nm",
  "procedure": "Fluorescence spectroscopy was performed on either a HORIBA Duetta or BMG Labtech CLARIOstar plus plate reader. Emission spectra were obtained using the appropriate excitation wavelength and at a temperature of either 298 or 310 K and at pH 7.4 unless otherwise stated. Data collection and analysis were performed using EzSpec software by HORIBA or CLARIOstar MARS software by BMG Labtech. Further analysis and processing were performed in Microsoft Excel.\nA solution of GBM and FIM at the required concentrations were created in the appropriate media. The emission spectrum of the assay was then acquired by exciting at the designated excitation wavelength to obtain the baseline emission intensity for the assay. Aliquots of 2 M D-glucose (in the same media) were then added to give the required final glucose concentrations (e.g. 15 μL of 2 M D-glucose in 3 mL gives a final D-glucose concentration of 10 mM) and the assay allowed to reach equilibration. The emission spectra were collected after each addition of D-glucose and compared to the original baseline emission, monitoring at the typical emission maximum (Emmax), and the percentage increase or decrease recorded. Emission spectra acquired on either a Horiba Duetta fluorometer or Clariostar plus plate reader.\nThe glucose responsive fluorescence emission for different combinations of glucose binding molecules (GBM) and fluorescent inhibitor molecules (FIM) at various concentrations and in various media was tested as described above. All results obtained at pH 7.4 and 298 K unless otherwise stated.\nAll results obtained at pH 7.4 and 298 K unless otherwise stated.\nTable 4 provides the composition of the assay media used as the code assigned to each media as used in Tables 1 to 3.",
  "data": [
    {"smiles": "Cc1ccc2n1[B-](F)(F)[N+]1=C(/C=C/c3ccc(C(=O)O)cc3)C=CC1=C2c1ccccc1OCc1cn(CCOCCOCCOCCO[C@@H]2O[C@H](CO)[C@@H](O)[C@H](O)[C@H]2O)nn1", "note": "[FIM31]", "values": [
      {"measurement": "Change in Emmax for FIM at a particular D-glucose concentration", "result": 90, "unit": "%"}
    ]}
  ]
}
